One data set concerns the target AT2 Receptor (AT2R) (Homo sapiens (Human), UniProt P50052). Briefly: Inhibitory activity on AT2 receptor (Tag-lite HTRF, Tb-labeled AT2R cells, angiotensin receptor red agonist). The class given is binding. Conditions: 1 h at room temperature. For orientation: TR-FRET usually uses a lanthanide donor and a delayed reading to cut background.
The target of the next data set is AT1 Receptor (AT1R) (Homo sapiens (Human), UniProt P30556). Kind of data set: Inhibitory activity on AT1 receptor (Tag-lite HTRF, Tb-labeled AT1R cells, angiotensin receptor red agonist). The class given is binding. Conditions: 1 h at room temperature.
Chain of AT1 Receptor (AT1R) (P30556 whole entry): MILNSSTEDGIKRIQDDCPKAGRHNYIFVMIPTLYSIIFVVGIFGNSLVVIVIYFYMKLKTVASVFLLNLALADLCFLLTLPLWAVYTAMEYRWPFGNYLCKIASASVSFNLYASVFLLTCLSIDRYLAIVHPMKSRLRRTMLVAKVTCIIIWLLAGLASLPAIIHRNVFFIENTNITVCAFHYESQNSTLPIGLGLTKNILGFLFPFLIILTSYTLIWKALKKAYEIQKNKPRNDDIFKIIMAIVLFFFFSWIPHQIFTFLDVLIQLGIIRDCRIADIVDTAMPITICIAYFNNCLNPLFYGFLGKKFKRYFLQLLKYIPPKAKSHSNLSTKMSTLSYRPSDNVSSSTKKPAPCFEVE
Data set [1] is described as follows: Pharmacokinetic (PK) test in mice. It is filed as in vivo. The conditions noted are these: male ICR mice, plasma; for AUC(0-inf): read-out: AUCINF_obs; for Cmax: read-out: C0/Cmax. As to the method: To male ICR mice, the solution of Compound C2 (1 mg/mL) of the present invention and the solution of control Compound A (1 mg/mL) were administered intravenously (IV) and intragastrically (PO), in both of which the vehicle system is DMSO, solutol and deionized water (1:2:17, v:v:v). For Compound C2 and Compound A, the IV and PO dosages were 3 mg/kg and 20 mg/kg, respectively. For IV administration, blood was collected from the ophthalmic venous plexus of the mice at (0) horn before the administration and at 0.083, 0.25, 0.5, 1, 2, 4, 6, 8, and 24 horns after the administration, while for PO administration, blood was collected from ophthalmic venous plexus of the mice at (0) hour before the administration and at 0.25, 0.5, 1, 2, 4, 6, 8, and 24 horns after the administration. For Compound C2, a 0.05 mL blood sample was taken at each time point, while for Compound A, a 0.03 mL blood sample was taken at each time point. The collected blood sample was placed in a clean sample tube containing EDTA-K2 (4%), and centrifuged at 5000 rpm at 4° C. for 5 minutes. The resulting plasma was transferred to another clean sample tube, and stored at −20° C. LC-MS/MS analysis was performed on the plasma samples. The pharmacokinetic parameters were calculated using WinNonlin 6.3 software.

pIC50: −log10 of the molar value. Read-outs that look alike come from different tables or passages of the source. Some results are limits rather than exact numbers.

The term pIC50 denotes the IC50 on a negative log10 scale, so that one unit is a factor of ten. A word on the bioavailability: it is the share of a dose that reaches the circulation, judged against a reference dose that is usually intravenous. A higher bioavailability goes with good availability. The AUC(0-t) is exposure summed from dosing to a finite time, without extrapolation to infinity. High values mean high exposure, low ones low exposure. Usually MRT last stands for the average time that molecules of a dose stay in the body. As a reminder, the half-life is how long it takes for the measured level to halve. Low values mean rapid decline, high ones slow decline.

Chain of AT2 Receptor (AT2R) (P50052 whole entry): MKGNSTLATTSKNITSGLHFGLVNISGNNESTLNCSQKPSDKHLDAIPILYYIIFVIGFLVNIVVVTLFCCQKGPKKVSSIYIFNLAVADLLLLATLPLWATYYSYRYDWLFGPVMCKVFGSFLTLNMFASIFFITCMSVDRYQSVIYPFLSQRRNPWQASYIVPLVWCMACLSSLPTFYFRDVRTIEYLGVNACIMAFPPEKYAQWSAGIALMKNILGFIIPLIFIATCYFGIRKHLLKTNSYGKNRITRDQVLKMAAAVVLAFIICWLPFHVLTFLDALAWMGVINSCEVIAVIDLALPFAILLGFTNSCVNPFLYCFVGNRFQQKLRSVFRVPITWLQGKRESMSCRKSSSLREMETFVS

`O=C(O)[C@@H]1CN(C(=O)N(c2ccccc2)c2ccccc2)CCN1C(=O)N1c2ccccc2C=Cc2ccccc21` [Compound C2, (S)-1-(5H-dibenzo[b,f]azepine-5-carbonyl)-4-(diphenylcarbamoyl) piperazine-2-carboxylic acid] gave a negative logarithm of the IC50 (pIC50) at AT2 Receptor (AT2R) of 7.69. Moreover, at AT1 Receptor (AT1R), the negative logarithm of the IC50 (pIC50) was less than 5.00. Besides, the CL_obs in data set [1] (IV, 3 mg/kg) is on record as 1.010 mL/min/kg. This compound also yielded a bioavailability in data set [1] (mouse, PO 20 mg/kg vs IV 3 mg/kg) of 45.7%. Besides, in data set [1] (mouse, IV, 3 mg/kg), the AUC(0-t) came out at 49 µg·h/mL, the mean residence time (MRT last) is 1.9 h, the half-life was 4.51 h and the AUC(0-inf) stood at 49.5 µg·h/mL. Moreover, in data set [1] (mouse, IV, 3 mg/kg), the Cmax came to 43.4 µg/mL. Further, in data set [1] (mouse, PO, 20 mg/kg), the AUC(0-t) was 151 µg·h/mL, the MRT last was 2.34 h, the half-life is 3.05 h and the AUC(0-inf) turned out to be 151 µg·h/mL. For the same compound, the Cmax in data set [1] (mouse, PO, 20 mg/kg) turned out to be 62 µg/mL.

The values above are taken from US11905274B2, “Receptor inhibitors, pharmaceutical compositions comprising the same and use thereof” (BEIJING TIDE PHARMACEUTICAL CO., LTD., priority 2018, dated 2024).
